Assay results reported in patent US20240417399A1, “ARYL HYDROCARBON RECEPTOR (AHR) MODULATORS AND THERAPEUTIC USES THEREOF” (GALILEO BIOSYSTEMS, INC., priority 2021, published 2024).

How the values were obtained:
[1] = tested on: CCL2; experiment: CCL2 release from human keratinocytes, inflammation induced by IL-4, IL-13, IL-22 and IFN-γ; format: cell-based; details: human keratinocytes induced by IL-4, IL-13, IL-22 and IFN-γ
Source text: (§1) Inflammation of human keratinocytes was induced by IL-4, IL-13, IL-22 and IFN-γ. […] FIG. 5B depicts concentration response curves of CCL2 release and cell viability for tapiranof.

[2] = tested on: IL-4; experiment: IL-4 release from T-cells, inflammation induced by CD2, CD3, and CD28; format: cell-based; details: highest test concentrations
Source text: (§2) Inflammation of T-cells were induced by CD2, CD3, and CD28. […] FIG. 7B depicts concentration response curves of inhibition of IL-2 and IL-4 release and cell viability for tapiranof.

[3] = tested on: IL-2; experiment: IL-2 release from T-cells, inflammation induced by CD2, CD3, and CD28; format: cell-based; details: highest test concentrations
Source text: as §2

[4] = tested on: IL-8; experiment: IL-8 release from human keratinocytes, inflammation induced by IL-17 and IFN-α; format: cell-based; details: human keratinocytes induced by IL-17 and IFN-α
Source text: FIG. 6B depicts concentration response curves of inhibition of IL-8 release and cell viability for tapiranof.

[5] = tested on: human keratinocytes; experiment: Cell viability of human keratinocytes, inflammation induced by IL-4, IL-13, IL-22 and IFN-γ; format: cell-based; details: human keratinocytes induced by IL-4, IL-13, IL-22 and IFN-γ
Source text: as §1

[6] = tested on: IL-17; experiment: Imiquimod (IMQ)-induced skin inflammation: IL-17 gene expression in ear by qPCR; format: in vivo; details: Balb/c mice, topical on right ear, 20 μL, 50 mM once daily Day 1 to Day 9, IMQ cream
Description: (§3) The compounds are administered on the right ear once daily from Day 1 to Day 9 for 9 consecutive days. […] Daily Clobetasol dosage is 20 mg of 0.05% cream. One hour after administration, 15 mg imiquimod (IMQ) cream (5%, Aldaras) is applied topically on the right ear from Day 1 to Day 9 for 9 consecutive days. Ear swelling is measured (mm) as an index of inflammation on Day 0 and thereafter 30 min before dosing on Days 2, 4, 6 and 8. On Day 10, ear swelling is measured 24 hours after the last dosing. Ear edema is calculated by subtracting the thickness of Day 0 (normal control) from Day n (treated ear). Percent inhibition is calculated according to the formula: (Lc−Lt)/Lc×100, where Lc and Lt refer to increase of ear thickness in control and treated mice, respectively. Clinical scoring is done on the same days as the measurement of ear swelling. Body weight is recorded on Day 0 and thereafter daily before dosing. […] Right ears are harvested, weighed after the last ear swelling measurement, and cut into two parts, one part to be kept in 10% formalin for histopathological examination and the second part to be stored in RNAlater® solution at −20° C. for detection of IL-17 A, IL-22, GAPDH, and beta defensin with quantitative real-time PCR (qPCR). Dermal thickness is measured after taking photographs under a light microscope for the histopathological examination sections. […]

[7] = tested on: Male Balb/c mice; experiment: Imiquimod (IMQ)-induced skin inflammation: ear swelling; format: in vivo; details: topical on right ear, 20 μL, 50 mM once daily Day 1 to Day 9, IMQ cream
Description: as §3

[8] = Imiquimod (IMQ)-induced skin inflammation: body weight; format: in vivo; details: Balb/c mice, topical on right ear, 20 μL, 50 mM once daily Day 1 to Day 9
Description: as §3

Structure (SMILES) | inhibition of CCL2 release [1] | inhibition of IL-4 release [2] | inhibition of IL-2 release [3] | inhibition of IL-8 release [4] | cell viability [5] | IL-17 gene expression in the ear [6] | ear swelling compared to vehicle [7] | effect on body weights [8]
CC(C)c1c(O)cc(/C=C/c2ccccc2)cc1O [tapiranof, reference compound] | inhibited release of CCL2 | inhibited release of IL-2 and IL-4 at the highest test concentrations | inhibited release of IL-2 and IL-4 at the highest test concentrations | inhibited release of IL-8 | inhibition of cell viability at higher concentrations | – | – | –
O=C(c1nc2ccccc2[nH]1)c1c[nH]c2ccccc12 [Compound 10] | inhibited release of CCL2 | inhibited release of IL-2 and IL-4 at the highest test concentrations | inhibited release of IL-2 and IL-4 at the highest test concentrations | inhibited release of IL-8 | – | reduction in IL-17 gene expression | significant reductions in ear swelling | no significant effect on body weights
